Measured values taken from patent US10443103B2, “Chemotherapy regimen selection” (Innomedicine, LLC, priority 2015, dated 2019).

System: breast cancer
Test: Observed pathologic complete response (pCR) rate after neoadjuvant chemotherapy, GEO data sets
Format: in vivo, human
Details: Total of 7 GEO data sets, whole study population
Procedure: Herein, data was reanalyzed from several previous studies in which breast cancer patients were treated with neoadjuvant chemotherapy. Chemotherapies can be given at different stages of breast cancer: before surgery (also called neoadjuvant chemotherapy), after surgery and after metastasis. Neoadjuvant chemotherapy is often used to shrink tumors to make them more operable. There are two main categories of cytotoxic chemotherapy drugs for breast cancer: anthracyclines and taxanes. Many different combinations of the two types of drugs have been used for treating breast cancer, despite the fact that no effective guidelines are available for the selection of a specific regimen for a patient (Dotan, et al., 2010). Herein, data was collected from 1111 breast cancer patients from GEO database (Gene Expression Omnibus (Edgar, et al., 2002, Barrett, et al., 2013)), where clinical information including responses to chemotherapy and gene expression data are available. […] Among the 1111 patients, 21.2% of them have pCR and the rest have RD as their responses. […]
1111 breast cancer tumor samples were collected from 7 data series in GEO database (Gene Expression Omnibus (Takada, et al., 2012, Albain, et al., 2010)) (Table 2). […] R (Liu, et al., 2012) package Affyio (Edgar, et al., 2002) was used to read and normalize the Affymetrix® data. […]

| SMILES | percentage of patients who have pCR |
| --- | --- |
| CC(=O)O[C@H]1C(=O)[C@@]2(C)[C@H]([C@H](OC(=O)c3ccccc3)[C@]3(O)C[C@H](OC(=O)[C@H](O)[C@@H](NC(=O)c4ccccc4)c4ccccc4)C(C)=C1C3(C)C)[C@]1(OC(C)=O)CO[C@@H]1C[C@@H]2O [paclitaxel] | 19.7% |
| CC(=O)O[C@@]12CO[C@@H]1C[C@H](O)[C@@]1(C)C(=O)[C@H](O)C3=C(C)[C@@H](OC(=O)[C@H](O)[C@@H](NC(=O)OC(C)(C)C)c4ccccc4)C[C@@](O)([C@@H](OC(=O)c4ccccc4)[C@H]21)C3(C)C [docetaxel] | 33.1% |
